The supplement of paper PMC8671470

Experiments:
Details in all cases: 72 h
LAMA-84 = assay: cell viability (% survival relative to DMSO control, bortezomib = 0%); higher = less cytotoxic
Procedure, shortened: (§1)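 Seeding density for each of the 10 AML and 5 CML cell lines was titrated to the linear growth range. Cells went into 384-well plates pre-printed in duplicate with compounds at 1, 10, 100, 1000 or 10000 nM and were held for 72 h at 37 °C with 5% CO2. CellTiter-Glo luminescence then provided the readout. Percent survival is expressed relative to vehicle at 100% and a 10 µM positive control at 0%, averaged over duplicates.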

NOMO-1 = assay: as above
Procedure, shortened: as §1

SHI-1 = assay: as above
Procedure, shortened: as §1

KCL-22 = assay: as above
Procedure, shortened: as §1

HEL = assay: as above
Procedure, shortened: as §1

KU-812 = assay: as above
Procedure, shortened: as §1

MOLM-13 = assay: as above
Procedure, shortened: as §1

Mono-Mac-6 = assay: as above
Procedure, shortened: as §1

THP-1 = assay: as above
Procedure, shortened: as §1

KG-1 = assay: as above
Procedure, shortened: as §1

K-562 = assay: as above
Procedure, shortened: as §1

ML-2 = assay: as above
Procedure, shortened: as §1

BV-173 = assay: as above
Procedure, shortened: as §1

HL-60 [1] = assay: as above
Procedure, shortened: as §1

MV4-11 [2] = assay: as above
Procedure, shortened: as §1

MV4-11 [3] = tested on: MV4-11
Procedure, shortened: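 Fifteen myeloid leukaemia lines were incubated for 72 h at 37 °C with 5% CO2 across five tenfold doses from 1 to 10,000 nM, in duplicate. ATP luminescence was normalised to vehicle and to a positive control at 10 µM and fitted with a four-parameter log-logistic model. The IC50 came from these dose–response fits.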

HL-60 [4] = assay: cell viability (% survival relative to DMSO control); higher = less cytotoxic
Procedure, shortened: (§2)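 HL-60 cells in RPMI 1640 with 10% FBS were rescreened against the full library on 384-well plates at five tenfold concentrations, 1–10,000 nM, in duplicate. Each screen was run with DMSO or 100 nM of one of three metabolic inhibitors, for 72 h at 37 °C, 5% CO2. Viability was read by CellTiter-Glo and normalised to DMSO and 10 μM proteasome-inhibitor wells. Where given, area under the curve came from four-parameter log-logistic fits (drc, PharmacoGx).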

HL-60 [5] = assay: area under dose-response curve (viability, 1 nM-10 uM) (fraction (0-1)); higher = more sensitive
Procedure, shortened: as §2

COc1cc(C2Oc3cc(C4Oc5cc(O)cc(O)c5C(=O)C4O)ccc3OC2CO)ccc1O (stereo not given) [Silibinin]
Details	area under dose-response curve, co-treatment: AZD3965 100 nM	area under dose-response curve, co-treatment: DMSO vehicle	area under dose-response curve, co-treatment: GSK2194069 100 nM	area under dose-response curve, co-treatment: pictilisib 100 nM	cell viability, 1 nM [%]	cell viability, 10 nM [%]	cell viability, 100 nM [%]	cell viability, 1000 nM [%]	cell viability, 10000 nM [%]
BV-173	–	–	–	–	90.9	93.5	110	95.2	87.2
HEL	–	–	–	–	101	100	115	89.2	103
HL-60 [1]	–	–	–	–	91.9	92.9	96.9	105	104
HL-60 [5]	< 0.0301	< 0.0301	< 0.0301	< 0.0301	–	–	–	–	–
K-562	–	–	–	–	95	97.7	102	94.5	76.4
KCL-22	–	–	–	–	99.3	95.3	84.2	102	95.1
KG-1	–	–	–	–	91.3	104	99.2	94.3	93.8
KU-812	–	–	–	–	96.5	93.1	108	94.1	90.7
LAMA-84	–	–	–	–	98.1	102	110	95.6	95
ML-2	–	–	–	–	93	99.2	87.2	95.8	91.1
MOLM-13	–	–	–	–	99.8	103	103	106	103
MV4-11 [2]	–	–	–	–	100	95.7	97.2	110	98.8
Mono-Mac-6	–	–	–	–	96.4	91.2	94.1	99	98.9
NOMO-1	–	–	–	–	95.3	96.4	99.8	101	99.7
SHI-1	–	–	–	–	102	107	89.3	98.6	105
THP-1	–	–	–	–	99.3	95.5	107	98.9	95.9

Details	IC50 (cell viability) [µM]
MV4-11 [3]	> 10

cell viability [%], HL-60 [4]
Details	0.001 µM	0.01 µM	0.1 µM	1 µM	10 µM
co-treatment: AZD3965 100 nM	107	99.1	107	102	102
co-treatment: DMSO vehicle	100	100.8	104	102	97.72
co-treatment: GSK2194069 100 nM	107	101	105	105	97.3
co-treatment: pictilisib 100 nM	103	103	107	106	95.8

O=C(CCl)N(CCCNC(=O)C(F)(F)F)c1ccc([N+](=O)[O-])cc1 [ML175]
Details	area under dose-response curve, co-treatment: AZD3965 100 nM	area under dose-response curve, co-treatment: DMSO vehicle	area under dose-response curve, co-treatment: GSK2194069 100 nM	area under dose-response curve, co-treatment: pictilisib 100 nM	cell viability, 1 nM [%]	cell viability, 10 nM [%]	cell viability, 100 nM [%]	cell viability, 1000 nM [%]	cell viability, 10000 nM [%]
BV-173	–	–	–	–	122	99.9	101	-0.0318	-0.742
HEL	–	–	–	–	105	106	96.3	-0.0497	-0.423
HL-60 [1]	–	–	–	–	104	111	110	83.4	-1.03
HL-60 [5]	0.125	0.133	0.14	0.136	–	–	–	–	–
K-562	–	–	–	–	101	91.9	99.6	95.7	-0.364
KCL-22	–	–	–	–	113	118	85	82.5	-0.718
KG-1	–	–	–	–	109	109	96.8	6.67	-0.879
KU-812	–	–	–	–	99.1	96.8	89.7	81.3	-0.456
LAMA-84	–	–	–	–	107	106	90.5	89.9	-0.333
ML-2	–	–	–	–	97	102	94.5	0.519	-0.998
MOLM-13	–	–	–	–	89.5	115	92.4	0.57	-1.51
MV4-11 [2]	–	–	–	–	93.6	93	95.6	-0.18	-0.931
Mono-Mac-6	–	–	–	–	101	104	98.2	44.6	-1.09
NOMO-1	–	–	–	–	96.3	97.8	97.8	0.0839	-0.851
SHI-1	–	–	–	–	95	127	85.1	107	-0.834
THP-1	–	–	–	–	99.7	102	91.9	94.2	-2.38

Details	IC50 (cell viability) [µM]
MV4-11 [3]	0.309

cell viability [%], HL-60 [4]
Details	0.001 µM	0.01 µM	0.1 µM	1 µM	10 µM
co-treatment: AZD3965 100 nM	103	100	102.27	104	0.129
co-treatment: DMSO vehicle	104	103	99.79	99.8	-1.45
co-treatment: GSK2194069 100 nM	100	92.97	98.3	95.2	-1.73
co-treatment: pictilisib 100 nM	101	94.4	98.5	95.1	1.1

CN(C)C(=N)NC(=N)N [Metformin]
Details	area under dose-response curve, co-treatment: AZD3965 100 nM	area under dose-response curve, co-treatment: DMSO vehicle	area under dose-response curve, co-treatment: GSK2194069 100 nM	area under dose-response curve, co-treatment: pictilisib 100 nM	cell viability, 1 nM [%]	cell viability, 10 nM [%]	cell viability, 100 nM [%]	cell viability, 1000 nM [%]	cell viability, 10000 nM [%]
BV-173	–	–	–	–	107	90.3	92	100	89.2
HEL	–	–	–	–	110	94.3	107	102	97.3
HL-60 [1]	–	–	–	–	98.2	93.8	109	102	84.3
HL-60 [5]	< 0.0301	< 0.0301	< 0.0301	< 0.0301	–	–	–	–	–
K-562	–	–	–	–	91.9	102	97.5	103	91.1
KCL-22	–	–	–	–	98.2	98.9	98.4	103	88.1
KG-1	–	–	–	–	97.4	97.3	101	100	96.3
KU-812	–	–	–	–	102	95.5	96.2	110	88.5
LAMA-84	–	–	–	–	95.6	87.9	97.9	97.7	92.9
ML-2	–	–	–	–	102	101	99.2	101	88.5
MOLM-13	–	–	–	–	105	91.5	117	102	83.5
MV4-11 [2]	–	–	–	–	91.2	79.7	81.7	107	84.7
Mono-Mac-6	–	–	–	–	113	89.7	95.5	97.9	91.8
NOMO-1	–	–	–	–	109	93.6	95.4	97.1	92.2
SHI-1	–	–	–	–	103	98.3	104	106	93.9
THP-1	–	–	–	–	99.4	95.4	93	101	94.4

Details	IC50 (cell viability) [µM]
MV4-11 [3]	> 10

cell viability [%], HL-60 [4]
Details	0.001 µM	0.01 µM	0.1 µM	1 µM	10 µM
co-treatment: AZD3965 100 nM	94.9	99	103	94.9	100
co-treatment: DMSO vehicle	101.9	95.8	102.3	95.9	96.73
co-treatment: GSK2194069 100 nM	98.7	98	109	94	106
co-treatment: pictilisib 100 nM	92	111	120	96.7	104
